Reference: patent publication EP4177246A1, “FUSED OXAZEPINES AS INHIBITORS OF PEROXIREDOXINS” (Centro Atlántico del Medicamento, SA, priority 2021, dated 2023)

How the values were obtained:
[1] = system: MDA-MB-231; assay: MTT cell viability assay, MDA-MB-231 cells; format: cell-based, human; details: 48 h drug exposure
Experimental: MDA-MB-231 [American Type Culture Collection (ATCC) reference number HTB-26]. This a human breast cancer cell line derived from a metastatic site from a person.
(§1) Cell viability was assayed by measuring the mitochondrial reduction of the tetrazolium salt 3-(4,5-methyltiazol-2yl)-2,5diphenyl-tetrazolium bromide] (MTT) (Applichen; A2231,0010) [Mosmann T. J Immunol Methods. 1983 16;65(1-2):55-63 (ref. 36); Chuan Y-C et al 2010. Oncogene. 29 (10), 1531-1542 (ref. 37)]. Cells were seeded in 96-well plates in medium (either RPMI, DMEM or McCoys depending on the recommendations from the ATCC) supplemented with 10% FBS (Lonza Cat. N°: 14-502F), 2mM L-Glut (Lonza Cat. N°: BE17-605E) and 100U/ml PEST (Lonza Cat. N°: DE17-605E) at a cell density of 1000-5000 cells/well (96 well plate). Cells were seeded at a density according to their exponential growth phase (normally 1000 to 5000/well). The cells were cultured at 37 °C in the dark in air containing 5% CO2. After 24h either vehicle (0.05% DMSO) or drug were added to culture medium at the indicated concentrations (10 to 0,01microM). After another 48 h, MTT (0.3 mg/ml) was added to cells, followed by incubation for 2-4h at 37 °C in the dark. The medium was then removed and the precipitated formazan was solubilized by the addition of DMSO (200 µL).
(§2) The optical density was measured at 595 nm with the iMark Microplate Reader (BioRad, USA). Data was expressed as percent growth above the level in controls and the results in figures were plotted as means ± SEM of each test point from 3 replicates.
(§3) Statistical analysis. The concentration of drug that provokes 50% reduction of cell viability (IC50) was determined by using non-linear regression analysis and data were fitted to a log concentration vs normalized response curve in GraphPad software v5 (San Diego, CA).

[2] = system: HEL 92.1.7; assay: MTT cell viability assay, HEL cells; format: cell-based; details: Homo sapiens, 48 h drug exposure
Experimental: HEL 92.1.7 [American Type Culture Collection (ATCC) reference number TIB-180]. This a human cancer cell line derived from the bone marrow of a person with erythroleukemia, which is a form of AML.
as §1, §2, §3

[3] = system: K562; assay: MTT cell viability assay, K562 cells; format: cell-based; details: Homo sapiens, 48 h drug exposure
Experimental: K562 [American Type Culture Collection (ATCC) reference number CCL-243]. This a human cancer cell line derived from the bone marrow of a person with CML.
as §1, §2, §3

SMILES	IC50 ([1]; Homo sapiens)	IC50 [2]	also measured
NS(=O)(=O)c1ccc(N2Cc3ccccc3OC3=C2C(=O)c2c(cccc2[N+](=O)[O-])C3=O)cc1 [Compound 80]	6.6 µM		
O=C(O)c1ccc2c(c1)CN(c1ccccc1)C1=C(O2)C(=O)c2c(O)ccc(O)c2C1=O [Compound 50]		2.42 µM	
COC(=O)c1ccc(N2Cc3ccccc3OC3=C2C(=O)c2c(O)ccc(O)c2C3=O)cc1 [Compound 48]	0.27 µM	0.1 µM	
CN1CCN(c2cc(O)c3c(c2O)C(=O)C2=C(C3=O)N(c3cccnc3)Cc3ccccc3O2)CC1 [Compound 33]	0.72 µM		
COc1ccc(OC)c2c1C(=O)C1=C(C2=O)N(c2cccc(C#N)c2)Cc2ccccc2O1 [Compound 94]	1 µM		
O=C(O)c1ccc(N2Cc3ccccc3OC3=C2C(=O)c2c(O)ccc(O)c2C3=O)cc1 [Compound 57]	1.17 µM	0.13 µM	
CC(=O)Oc1ccc(O)c2c1C(=O)C1=C(Oc3ccccc3CN1c1cccnc1)C2=O [Compound 90]		0.09 µM	
O=C1C2=C(C(=O)c3c(O)ccc(O)c31)N(c1ccc(C(=O)N3CCOCC3)cc1)Cc1ccccc1O2 [Compound 58, 7,10-dihydroxy-12-(4-(morpholine-4-carbonyl)phenyl)-12,13-dihydrobenzo[f]naphtho[2,3-b][1,4]oxazepine-6,11-dione]	0.5 µM		
CC(=O)Oc1ccc(OC(C)=O)c2c1C(=O)C1=C(C2=O)N(c2ccc(C#N)cc2)Cc2ccccc2O1 [Compound 67, 12-(4-cyanophenyl)-6,11-dioxo-6,11,12,13-tetrahydrobenzo[f]naphtho[2,3-b][1,4] oxazepine-7,10-diyl diacetate]	0.28 µM	0.23 µM	
N#Cc1ccc(N2Cc3ccccc3OC3=C2C(=O)c2c(O)cc(F)c(O)c2C3=O)cc1 [Compound 34]	0.74 µM		
N#Cc1ccc(N2Cc3ccccc3OC3=C2C(=O)c2cccc([N+](=O)[O-])c2C3=O)cc1 [Compound 107]	5.9 µM		
COc1ccc(OC)c2c1C(=O)C1=C(C2=O)N(c2ccc(C#N)cc2)Cc2ccccc2O1 [Compound 30]	0.89 µM		
COc1ccc2c(c1)OC1=C(C(=O)c3ccccc3C1=O)N(c1ccc(C#N)cc1)C2 [Compound 14]			IC50 [3]: 0.97 µM
O=C1C2=C(C(=O)c3ccc(S(=O)(=O)N4CCOCC4)cc31)N(c1cccnc1)Cc1ccccc1O2 [Compound 71]	3.2 µM		
N#Cc1ccc(N2Cc3ccccc3OC3=C2C(=O)c2ccc(Br)c(O)c2C3=O)cc1 [Compound 74, 4-(8-bromo-7-hydroxy-6,11-dioxo-6,11-dihydrobenzo[f]naphtho[2,3-b][1,4]oxazepin-12(13H)-yl)benzonitrile]	1.8 µM		
COc1ccc(N2Cc3ccccc3OC3=C2C(=O)c2c(O)ccc(O)c2C3=O)cc1 [Compound 46]	0.25 µM	0.11 µM	
CC(=O)Oc1ccc(OC(C)=O)c2c1C(=O)C1=C(C2=O)N(c2ccc(C(=O)O)cc2)Cc2ccccc2O1 [Compound 53]	0.64 µM	0.12 µM	
NC(=O)c1ccc(N2Cc3cc(Cl)ccc3OC3=C2C(=O)c2ccccc2C3=O)cc1 [Compound 21]			IC50 [3]: 1.12 µM
CS(=O)(=O)Nc1cccc2c1C(=O)C1=C(C2=O)N(c2ccc(C#N)cc2)Cc2ccccc2O1 [Compound 78, N-(12-(4-cyanophenyl)-6,11-dioxo-6,11,12,13-tetrahydrobenzo[f]naphtha [2,3-b][1,4]oxazepin-7-yl)methanesulfonamide]	6.9 µM		
COc1cc(F)c(OC)c2c1C(=O)C1=C(Oc3ccccc3CN1c1ccc(C#N)cc1)C2=O [Compound 31]	1.51 µM		
CC(=O)Oc1ccc(OC(C)=O)c2c1C(=O)C1=C(C2=O)N(c2cccc(C(N)=O)c2)Cc2ccccc2O1 [Compound 92, 12-(3-carbamoylphenyl)-6,11-dioxo-6,11,12,13-tetrahydrobenzo[f]naphtho[2,3-b][1,4] oxazepine-7,10-diyl diacetate]	0.15 µM	0.12 µM	
CN(C)CCOc1ccc(N2Cc3ccccc3OC3=C2C(=O)c2ccccc2C3=O)cn1 [Compound 72]	0.72 µM		
O=C(O)c1ccc2c(c1)CN(c1cccnc1)C1=C(O2)C(=O)c2c(O)ccc(O)c2C1=O [Compound 52]	> 10 µM	> 10 µM	

SMILES	IC50 ([1]; Homo sapiens)	IC50 [2]	also measured
NCCN(CCO)c1ccc(N2Cc3ccccc3OC3=C2C(=O)c2c(O)ccc(O)c2C3=O)cn1 [Compound 63]	0.25 µM	0.09 µM	
O=C1C2=C(Oc3ccccc3CN2c2cccnc2)C(=O)c2c1cccc2[N+](=O)[O-] [Compound 27]	1.73 µM		
CN1CCN(c2cc(O)c3c(c2O)C(=O)C2=C(C3=O)N(c3ccc(C#N)cc3)Cc3ccccc3O2)CC1 [Compound 32]	0.79 µM		
N#Cc1ccc(N2Cc3ccccc3OC3=C2C(=O)c2c(cccc2[N+](=O)[O-])C3=O)cc1 [Compound 108]	2.95 µM		
O=C1C2=C(C(=O)c3c1cccc3[N+](=O)[O-])N(c1cccnc1)Cc1ccccc1O2 [Compound 28]	2 µM		
NS(=O)(=O)c1ccc(N2Cc3ccccc3OC3=C2C(=O)c2cccc([N+](=O)[O-])c2C3=O)cc1 [Compound 79]	6.8 µM		
CC(=O)Oc1ccc(OC(C)=O)c2c1C(=O)C1=C(Oc3ccccc3C(c3ccc(N4CCOCC4)nc3)N1)C2=O (centres unmarked) [Compound 96, 12-(6-morpholinopyridin-3-yl)-6,11-dioxo-6,11,12,13-tetrahydrobenzo[f]naphtha [2,3-b][1,4] oxazepine-7,10-diyl diacetate]			IC50 [1]: 0.13 µM
CCOC(=O)c1ccc2c(c1)CN(c1cccnc1)C1=C(O2)C(=O)c2c(O)ccc(O)c2C1=O [Compound 51]	0.6 µM	3.31 µM	
O=C1C2=C(C(=O)c3c(O)ccc(O)c31)N(c1ccc(Cl)nc1)Cc1ccccc1O2 [Compound 47, 12-(6-chloropyridin-3-yl)-7,10-dihydroxy-12,13-dihydrobenzo[f]naphtho[2,3-b][1,4]-oxazepine-6,11-dione]	0.33 µM		
CC(=O)Oc1ccc(OC(C)=O)c2c1C(=O)C1=C(C2=O)N(c2ccccc2)Cc2ccccc2O1 [Compound 87, 6,11-dioxo-12-phenyl-6,11,12,13-tetrahydrobenzo[f]naphtho[2,3-b][1,4]oxazepine-7,10-diyl diacetate]	0.15 µM	0.08 µM	
CC(=O)Oc1ccc(OC(C)=O)c2c1C(=O)C1=C(C2=O)N(c2cccc(C#N)c2)Cc2ccccc2O1 [Compound 82, 12-(3-cyanophenyl)-6,11-dioxo-6,11,12,13-tetrahydrobenzo[f]naphtho[2,3-b][1,4] oxazepine-7,10-diyl diacetate]	0.8 µM	0.18 µM	
COc1cc(F)c(OC)c2c1C(=O)C1=C(Oc3ccccc3CN1c1cccnc1)C2=O [Compound 35]	0.8 µM		
COc1cccc2c1OC1=C(C(=O)c3ccccc3C1=O)N(c1ccc(C(N)=O)cc1)C2 [Compound 7]			IC50 [3]: 0.89 µM
N#Cc1ccc(N2Cc3ccccc3OC3=C2C(=O)c2ccc(S(=O)(=O)N4CCOCC4)cc2C3=O)cc1 [Compound 70]	7.1 µM		
CC(=O)Oc1ccc(OC(C)=O)c2c1C(=O)C1=C(Oc3ccccc3C(c3ccc(N(C)C)nc3)N1)C2=O (centres unmarked) [Compound 95, 12-(6-(dimethylamino)pyridin-3-yl)-6,11-dioxo-6,11,12,13-tetrahydrobenzo[f]naphtha [2,3-b][1,4]oxazepine-7,10-diyl diacetate]			IC50 [1]: 0.15 µM
O=C1C2=C(C(=O)c3ccccc31)N(c1ccccn1)Cc1ccccc1O2 [Compound 5, 12-(pyridin-2-yl)-12,13-dihydrobenzo[f]naphtho[2,3-b][1,4]oxazepine-6,11-dione]			IC50 [3]: 0.43 µM
NS(=O)(=O)c1ccc(N2Cc3ccccc3OC3=C2C(=O)c2ccc(S(=O)(=O)N4CCOCC4)cc2C3=O)cc1 [Compound 29]	> 10 µM		
NS(=O)(=O)c1ccc(N2Cc3cc(Cl)ccc3OC3=C2C(=O)c2ccccc2C3=O)cc1 [Compound 20]			IC50 [3]: 1.42 µM
CC(=O)Oc1ccc(OC(C)=O)c2c1C(=O)C1=C(C2=O)N(c2cccnc2)Cc2ccccc2O1 [Compound 60, 6,11-dioxo-12-(pyridin-3-yl)-6,11,12,13-tetrahydrobenzo[f]naphtho[2,3-b][1,4] oxazepine-7,10-diyl diacetate]	0.41 µM	0.08 µM	
CC(=O)Oc1ccc(O)c2c1C(=O)C1=C(C2=O)N(c2ccccc2)Cc2ccccc2O1 [Compound 88]		0.08 µM	
O=C(O)c1ccc(N2Cc3ccccc3OC3=C2C(=O)c2ccccc2C3=O)cc1 [Compound 18]			IC50 [3]: > 10 µM
O=C1C2=C(C(=O)c3ccccc31)N(c1ccc(Cl)cc1)Cc1ccccc1O2 [Compound 3]			IC50 [3]: 0.9 µM
CCOC(=O)c1ccc2c(c1)CN(c1ccccc1)C1=C(O2)C(=O)c2c(O)ccc(O)c2C1=O [Compound 64]		5.89 µM	IC50 [3]: 1.3 µM
